Assay results published in patent publication US20140142352A1, “BUTANOL PURIFICATION” (BUTAMAX ADVANCED BIOFUELS LLC, priority 2012, published 2014).
Read-outs that look alike come from different tables or passages of the source.

Tests used:
[1] = Liquid-liquid extraction of carboxylic acids from fermentation medium into oleyl alcohol at different pH; assay type: physicochemical
Description: (§1) The samples were subsequently incubated in a shaker at 30° C. and 300 rpm for 30 minutes. […] Finally, the aqueous broth samples were withdrawn from the upper section of the bottom phase for further analysis. […] The flow rate was 0.60 ml/min, the column temperature 40° C., the injection volume 10 ul and the run time was 58 minutes.

[2] = 30 min, pH 5.3
Description: The emulsions were rigorously vortexed and incubated at 30° C. and 300 rpm for 30 minutes. The emulsions were rigorously vortexed again, 1 mL sample was withdrawn and centrifuged in an Eppendorf table top centrifuge for 5 minutes at 16,000 rpm. Samples were taken from the top (extractant) as well as bottom (aqueous broth) phase and stored in the freezer at −20° C. for further analysis.
Aqueous broth samples were filtered through a 0.20 μm filter (Nanosept MF, Pall) and analyzed by HPLC. […] The flow rate was 0.08 ml/min, column temperature was 60° C., the injection volume was 10 ul and the sample run time was 38 minutes.
In subsequent calculations, the volume of water was corrected for the extracted volume, but no volume increase of the diluent was considered.
Partitioning of the deprotonated form of the acid was neglected, and only the protonated form was assumed to transition into the diluent oleyl alcohol.

[3] = Liquid-liquid extraction of isobutyric acid from fermentation medium into SOFA at different pH; assay type: physicochemical
Description: as §1

[4] = Liquid-liquid extraction of isobutyric acid from fermentation medium into oleic acid at different pH; assay type: physicochemical
Description: as §1

[5] = Liquid-liquid extraction of isobutyric acid from fermentation medium into COFA at different pH; assay type: physicochemical
Description: as §1

[6] = system: anaerobic inoculum; experiment: Acetate Toxicity Assays (ATA); assay type: cell-based
Description: For the BMP tests, iBA provided the sole source of substrate over a range of conditions. Feed controls were prepared at organic loadings that spanned the lower and upper range of loadings used in the ATA and BMP tests, and gas production was monitored. Samples were prepared in triplicate with the seed concentration for all test bottles being 2000 mg/L. The feed control and ATA biodegradable synthetic feed composition contained 4000 mg/L acetate and 2000 mg/L propionate. The inorganic nutrient media used was similar to media presented in Table 5.1 of […], Anaerobic Biotechnology for Industrial […], Vanderbilt University, […], Nashville, p 115 (1996). The bottles were maintained at a temperature of 35° C.

[7] = Reactive liquid-liquid extraction from aqueous compound solution into OA or OA with TBP, TOA or A336: aqueous concentrations; assay type: physicochemical; conditions: pH=5.3, 30° C.
Description: The emulsions were rigorously vortexed and incubated at 30° C. and 300 rpm for 30 minutes. The emulsions were rigorously vortexed again, 1 mL sample was withdrawn and centrifuged in an Eppendorf table top centrifuge for 5 minutes at 16,000 rpm. Samples were taken from the top (extractant) as well as bottom (aqueous broth) phase and stored in the freezer at −20° C. for further analysis. […] The flow rate was 0.08 ml/min, column temperature was 60° C., the injection volume was 10 ul and the sample run time was 38 minutes.

[8] = system: isobutanologen PNY 2242; experiment: SSF corn mash fermentation of isobutanologen with extractant layer; assay type: cell-based
Description: An isobutanologen was cultivated in 20 ml of corn mash in 125 ml shake flasks with a simultaneous saccharification and fermentation (SSF) process. […] The culture was incubated at 30° C. and 250 rpm for 24 hours in an Innova Laboratory Shaker (New Brunswick Scientific, Edison, N.J.). […] Resulting stage 2 cultures with total culture volume of 103 ml were incubated again at 250 rpm for 24 hours. […] Cultures were spun down at 9500 rpm for 20 minutes and supernatants were discarded. Cell pellet was re-suspended into 20 ml of production medium in the tubes.
The 20 ml cell cultures in the tubes were transferred into the shake flasks pre-filled with solvent. 50 μl of distillase added, and the shake flasks were closed with a close lid (for low oxygen/anaerobic cultivation). The flasks were subsequently incubated at 30° C. and 250 rpm for 48 hours. Each flask was sampled twice a day to measure glucose via YSI. After 48 hours, 2 ml aqueous and 1 ml of solvent phase were saved for exo-metabolite, starch and extractant analysis.
Extracellular compound analysis in supernatant was accomplished by HPLC. […] Flow rate was 0.60 ml/min, column temperature 40° C., injection volume 10 ul and run time 58 min.
For starch analysis, culture samples were centrifuged for 5 minutes at 14,000 rpm and solvent atop the aqueous layer was removed. Remaining aqueous fraction was re-suspended, thoroughly mixed and 0.30 g of the mixture transferred into previously weighted vials. […] Finally the samples were incubated for 5 minutes at 99° C. and 1100 rpm, transferred to previously weighted 10 mL volumetric flasks, filled at level with water, weights were recorded, 400 μl of the solution filtered through a centrifugal filter and subjected to HPLC analysis.
The cultures contained a second layer with either oleyl alcohol (OA) or an OA phase containing different portions of either trioctylamine (TOA) or aliquate for liquid-liquid extraction (LLX).

[9] = pH 3.14, ISPR ratio (Aq):(Oleyl Alcohol) 1:1
[10] = pH 3.14, ISPR ratio (Aq):(Oleyl Alcohol) 1:3
[11] = pH 4.94, ISPR ratio (Aq):(Oleyl Alcohol) 1:1
[12] = pH 4.94, ISPR ratio (Aq):(Oleyl Alcohol) 1:3
[13] = pH 7.24, ISPR ratio (Aq):(Oleyl Alcohol) 1:1
[14] = pH 7.24, ISPR ratio (Aq):(Oleyl Alcohol) 1:3
[15] = 2 mL extractant on 2 mL aqueous solution
[16] = 6 mL extractant on 2 mL aqueous solution
[17] = 10 mL extractant on 2 mL aqueous solution

CC(=O)O [Acetic Acid, acetic acid]
Conc. of acid in aqueous broth after extraction [1, 9]: 140040 µM
Conc. of acid in aqueous broth after extraction [1, 10]: 106430 µM
Conc. of acid in aqueous broth after extraction [1, 11]: 162730 µM
Conc. of acid in aqueous broth after extraction [1, 12]: 159230 µM
Conc. of acid in aqueous broth after extraction [1, 13]: 169150 µM
Conc. of acid in aqueous broth after extraction [1, 14]: 173630 µM

CC(C)(O)CC(=O)O [HMB]
Conc. of acid in aqueous broth after extraction [1, 9]: 54070 µM
Conc. of acid in aqueous broth after extraction [1, 10]: 40280 µM
Conc. of acid in aqueous broth after extraction [1, 11]: 72000 µM
Conc. of acid in aqueous broth after extraction [1, 12]: 71860 µM
Conc. of acid in aqueous broth after extraction [1, 13]: 72460 µM
Conc. of acid in aqueous broth after extraction [1, 14]: 73310 µM

CC(C)CO [Isobutanol, 2-methyl-1-propanol]
Partition coefficients (P) [HA] org/aq [2]: 2.97 mol/mol

CC(C)C(=O)O [Isobutyric Acid, isobutyric acid]
Conc. of acid in aqueous broth after extraction [1, 9]: 19770 µM
Conc. of acid in aqueous broth after extraction [1, 10]: 8100 µM
Conc. of acid in aqueous broth after extraction [1, 11]: 46140 µM
Conc. of acid in aqueous broth after extraction [1, 12]: 30830 µM
Conc. of acid in aqueous broth after extraction [1, 13]: 93360 µM
Conc. of acid in aqueous broth after extraction [1, 14]: 91950 µM
Conc. Isobutyric Acid (%) ([3]; pH 3.93, ISPR ratio (Aq):(SOFA) 1:1): 31.37%
Conc. Isobutyric Acid (%) ([3]; pH 3.93, ISPR ratio (Aq):(SOFA) 1:3): 12.68%
Conc. Isobutyric Acid (%) ([3]; pH 4.92, ISPR ratio (Aq):(SOFA) 1:1): 53.76%
Conc. Isobutyric Acid (%) ([3]; pH 4.92, ISPR ratio (Aq):(SOFA) 1:3): 27.63%
Conc. Isobutyric Acid (%) ([3]; pH 6.64, ISPR ratio (Aq):(SOFA) 1:1): 74.48%
Conc. Isobutyric Acid (%) ([3]; pH 6.64, ISPR ratio (Aq):(SOFA) 1:3): 33.23%
Conc. Isobutyric Acid (%) ([4]; pH 4.08, ISPR ratio (Aq):(Oleic Acid) 1:1): 29.60%
Conc. Isobutyric Acid (%) ([4]; pH 4.08, ISPR ratio (Aq):(Oleic Acid) 1:3): 13.00%
Conc. Isobutyric Acid (%) ([4]; pH 4.82, ISPR ratio (Aq):(Oleic Acid) 1:1): 49.16%
Conc. Isobutyric Acid (%) ([4]; pH 4.82, ISPR ratio (Aq):(Oleic Acid) 1:3): 23.36%
Conc. Isobutyric Acid (%) ([4]; pH 6.95, ISPR ratio (Aq):(Oleic Acid) 1:1): 67.35%
Conc. Isobutyric Acid (%) ([4]; pH 6.95, ISPR ratio (Aq):(Oleic Acid) 1:3): 28.60%
Conc. Isobutyric Acid (%) ([5]; pH 4.08, ISPR ratio (Aq):(COFA) 1:1): 29.81%
Conc. Isobutyric Acid (%) ([5]; pH 4.08, ISPR ratio (Aq):(COFA) 1:3): 12.81%
Conc. Isobutyric Acid (%) ([5]; pH 4.82, ISPR ratio (Aq):(COFA) 1:1): 52.89%
Conc. Isobutyric Acid (%) ([5]; pH 4.82, ISPR ratio (Aq):(COFA) 1:3): 30.00%
Conc. Isobutyric Acid (%) ([5]; pH 6.95, ISPR ratio (Aq):(COFA) 1:1): 70.40%
Conc. Isobutyric Acid (%) ([5]; pH 6.95, ISPR ratio (Aq):(COFA) 1:3): 31.27%
Cumulative Gas Production (% Theoretical Max) ([6]; ATA-syn 550 ppm iBA, Day 2): 18 % Theoretical Max
Cumulative Gas Production (% Theoretical Max) ([6]; ATA-syn 550 ppm iBA, Day 4): 45 % Theoretical Max
Cumulative Gas Production (% Theoretical Max) ([6]; ATA-syn 550 ppm iBA, Day 6): 65 % Theoretical Max
Cumulative Gas Production (% Theoretical Max) ([6]; ATA-syn 550 ppm iBA, Day 10): 82 % Theoretical Max
Cumulative Gas Production (% Theoretical Max) ([6]; ATA-syn 550 ppm iBA, Day 12): 85 % Theoretical Max
Cumulative Gas Production (% Theoretical Max) ([6]; ATA-syn 550 ppm iBA, Day 15): 86 % Theoretical Max
Cumulative Gas Production (% Theoretical Max) ([6]; ATA-syn 825 ppm iBA, Day 2): 14 % Theoretical Max
Cumulative Gas Production (% Theoretical Max) ([6]; ATA-syn 825 ppm iBA, Day 4): 36 % Theoretical Max
Cumulative Gas Production (% Theoretical Max) ([6]; ATA-syn 825 ppm iBA, Day 6): 56 % Theoretical Max
Cumulative Gas Production (% Theoretical Max) ([6]; ATA-syn 825 ppm iBA, Day 10): 82 % Theoretical Max
Cumulative Gas Production (% Theoretical Max) ([6]; ATA-syn 825 ppm iBA, Day 12): 83 % Theoretical Max
Cumulative Gas Production (% Theoretical Max) ([6]; ATA-syn 825 ppm iBA, Day 15): 84 % Theoretical Max
Cumulative Gas Production (% Theoretical Max) ([6]; ATA-syn 1100 ppm iBA, Day 2): 14 % Theoretical Max
Cumulative Gas Production (% Theoretical Max) ([6]; ATA-syn 1100 ppm iBA, Day 4): 36 % Theoretical Max
Cumulative Gas Production (% Theoretical Max) ([6]; ATA-syn 1100 ppm iBA, Day 6): 51 % Theoretical Max
Cumulative Gas Production (% Theoretical Max) ([6]; ATA-syn 1100 ppm iBA, Day 10): 82 % Theoretical Max
Cumulative Gas Production (% Theoretical Max) ([6]; ATA-syn 1100 ppm iBA, Day 12): 85 % Theoretical Max
Cumulative Gas Production (% Theoretical Max) ([6]; ATA-syn 1100 ppm iBA, Day 15): 85 % Theoretical Max
inhibition of gas generation ([6]; iBA concentrations of up to 1100 parts per million (ppm)): did not inhibit gas generation
Partition coefficients (P) [HA] org/aq [2]: 1.91 mol/mol
KE (+A336, oleyl alcohol with 100 mM of Aliquat 336): 0.036
KE (+TBA, oleyl alcohol with 100 mM of tributyl phosphate): 0.000
KE (+TOA, oleyl alcohol with 100 mM of trioctyl amine): 0.010

CCCCCCCC/C=C\CCCCCCCCO [OA, oleyl alcohol]
Acetic Acid (mM), aqueous concentration after addition of extractant [7, 15]: 13.13 mM
Formic Acid (mM), aqueous concentration after addition of extractant [7, 15]: 11.96 mM
Isobutanol (mM), aqueous concentration after addition of extractant [7, 15]: 3.01 mM
Isobutyric Acid (mM), aqueous concentration after addition of extractant [7, 15]: 8.01 mM
MES (AU), aqueous concentration after addition of extractant [7, 15]: 6954908 AU
Phosphate (AU), aqueous concentration after addition of extractant [7, 15]: 656297 AU
Acetic Acid (mM), aqueous concentration after addition of extractant [7, 16]: 12.98 mM
Formic Acid (mM), aqueous concentration after addition of extractant [7, 16]: 12.68 mM
Isobutanol (mM), aqueous concentration after addition of extractant [7, 16]: 1.19 mM
Isobutyric Acid (mM), aqueous concentration after addition of extractant [7, 16]: 4.95 mM
MES (AU), aqueous concentration after addition of extractant [7, 16]: 7135183 AU
Phosphate (AU), aqueous concentration after addition of extractant [7, 16]: 673645 AU
Acetic Acid (mM), aqueous concentration after addition of extractant [7, 17]: 12.73 mM
Formic Acid (mM), aqueous concentration after addition of extractant [7, 17]: 13.05 mM
Isobutanol (mM), aqueous concentration after addition of extractant [7, 17]: 0.77 mM
Isobutyric Acid (mM), aqueous concentration after addition of extractant [7, 17]: 3.57 mM
MES (AU), aqueous concentration after addition of extractant [7, 17]: 7168671 AU
Phosphate (AU), aqueous concentration after addition of extractant [7, 17]: 676874 AU
performance of the butanologen (glucose consumption, isobutanol production, FIG. 4) ([8]; 48 hours, extractant as LLX layer): performed best
C (g/c) [g/L], free glucose during the SSF ([8]; EPT 3.67 h): 37.2 g/L
C (g/c) [g/L], free glucose during the SSF ([8]; EPT 21.00 h): 34.60 g/L
C (g/c) [g/L], free glucose during the SSF ([8]; EPT 28.00 h): 29.7 g/L
C (g/c) [g/L], free glucose during the SSF ([8]; EPT 48.00 h): 1.20 g/L

CCCCCCCCN(CCCCCCCC)CCCCCCCC [TOA, tru-n-octylamine]
efficiency of extraction of isobutyric acid (100 mM extractant in oleyl alcohol): less efficient
